According to PubChem BioAssay (NCI):
Several values for one entry are separate records, joined by “and”; a condition that tells them apart may be missing. Equal values may be shown once.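 1) Cells in 96-well plates. 2) Compound, 48 h, 5 concentrations. 3) Linear interpolation between surrounding doses. 4) Unreached endpoint = highest concentration. Abbreviation: GI50, concentration required for 50% inhibition of growth. TGI marks complete inhibition of growth.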

Legend:
Experiment in all cases: NCI-60 cell line screen, 48 h
SR leukemia = tested on: SR leukemia
TK-10 renal = tested on: TK-10 renal
BT-549 breast = tested on: BT-549 breast
NCI-H23 lung = tested on: NCI-H23 lung
SK-MEL-5 melanoma = tested on: SK-MEL-5 melanoma
SK-OV-3 ovarian = tested on: SK-OV-3 ovarian
SN12C renal = tested on: SN12C renal
PC-3 prostate = tested on: PC-3 prostate
UO-31 renal = tested on: UO-31 renal
HOP-92 NSCLC = tested on: HOP-92 NSCLC

SMILES	GI50 (SR leukemia) [µM]	TGI (SR leukemia) [µM]	GI50 (TK-10 renal)	TGI (TK-10 renal)	GI50 (BT-549 breast) [µM]	TGI (BT-549 breast) [µM]	GI50 (NCI-H23 lung)	TGI (NCI-H23 lung) [µM]	GI50 (SK-MEL-5 melanoma)	TGI (SK-MEL-5 melanoma)	GI50 (SK-OV-3 ovarian)	TGI (SK-OV-3 ovarian)	GI50 (SN12C renal) [µM]	TGI (SN12C renal) [µM]	GI50 (PC-3 prostate) [µM]	TGI (PC-3 prostate)	GI50 (UO-31 renal)	TGI (UO-31 renal) [µM]	TGI (HOP-92 NSCLC)	GI50 (HOP-92 NSCLC) [µM]
C=CC[C@@H]1/C=C(\C)C[C@H](C)C[C@H](OC)[C@H]2O[C@@](O)(C(=O)C(=O)N3CCCC[C@H]3C(=O)O[C@H](/C(C)=C/C3CC[C@@H](O)[C@H](OC)C3)[C@H](C)[C@@H](O)CC1=O)[C@H](C)C[C@@H]2OC (stereo partly specified)	14.1	39.8	14.3 µM	27.8 µM	10	27.2	16.3 µM	32.7	13.7 µM	26.6 µM	16.7 µM	31.2 µM	16.3	31.6	12.1	25.7 µM	12.8 µM	26.4		
CCCc1nc(NC#N)nc(C(=O)NC23CC4CC(CC(C4)C2)C3)c1C		> 100		> 100 µM				> 100		> 100 µM		> 100 µM		> 100				> 100	> 100 µM	
COc1cc(-n2cnc(-c3ccc(Cl)cc3)c2)cc(OC)c1OC	25.4	62.2	15 µM	37.4 µM	16.7	31.3	17.9 µM	35	67.8 µM	> 100 µM	21.2 µM	52.2 µM	> 100	> 100	12.7	31.7 µM	15.6 µM	40.5		
Cc1c(-c2nnc(-c3ccc(F)cc3)o2)nnn1-c1ccnc2c(C(F)(F)F)cccc12			32.2 µM	98.8 µM	21.6	58.1	65.7 µM	> 100	30.4 µM	> 100 µM	30 µM	> 100 µM	41.3	> 100	23.1	> 100 µM	60.3 µM	> 100	76.9 µM	14.7
O=C1c2cc([N+](=O)[O-])cc3cc([N+](=O)[O-])cc(c23)C(=O)N1CCCNCCNCCCN1C(=O)c2cc([N+](=O)[O-])cc3cc([N+](=O)[O-])cc(c23)C1=O				7.04 µM		5.51		2.41		1.97 µM		8.48 µM		2.2		7.87 µM		3.35	1.82 µM	
O=C(O)c1ccccc1-c1ccccc1C(=O)Nc1ccc2c(c1)[nH]c(=O)c1ccccc12				> 100 µM		> 100		> 100		> 100 µM		> 100 µM		> 100		> 100 µM		> 100	> 100 µM	
CCN(CC)CCCC(Cc1ccccc1)Nc1c2ccc(Cl)cc2nc2ccc(OC)cc12 (stereo unspecified)	1.43	4.25	1.68 µM	3.31 µM	2.2	5.17	2.9 µM	8.47			4.09 µM	13.9 µM	2.92	10.2	5.22	19.1 µM	1.35 µM	2.69	4.9 µM	2.1
N#CCCSC(=S)C1CCCC1=N (stereo unspecified)				> 100 µM		> 100		> 100		> 100 µM		> 100 µM		> 100		> 100 µM		> 100	> 100 µM	
NC1=CC(=O)c2nc3ccccc3c3ccnc1c23	2.47	> 100	6.54 µM	42.5 µM	6.9	27.9	0.273 µM	22.8			12 µM	> 52.9 µM	5.59	> 74.1	6.53	> 48 µM	3.49 µM	> 56.4		
COC1=C2C[C@@H](C)C[C@@H](OC)[C@@H](O)[C@H](C)/C=C(\C)[C@@H](OC(N)=O)[C@H](OC)/C=C\C=C(/C)C(=O)NC(=CC1=O)C2=O										8.59 µM [middle of 4 runs]		37.5 µM and 18 µM and 8.19 µM				8.01 µM and 5.58 µM and 14.9 µM				
Oc1ccc(-c2cn3cc(Cl)sc3n2)cc1	4.51	18.8	40.4 µM	84.9 µM	32.1	> 100			29.8 µM	78.1 µM			0.248	94.8	15.9	46.8 µM	> 100 µM	> 100		
CC(=O)OC1CC2C(C)(C)C(=O)C=C[C@]2(C)C2CCC3(C)C(c4ccoc4)[C@@H](O)[C@H]4O[C@]43[C@]12C (stereo partly specified)		41.4		88.7 µM				34.4		34.2 µM		42.5 µM		34.1				31.8	39.9 µM	
O=C1CC[C@H](c2ccc(O)c3c2C(=O)[C@@H]2O[C@@H]2C3=O)c2cccc(O)c21	0.835	4.57	1.49 µM	2.93 µM	2.38	6.42	3.31 µM	20.4	3.54 µM	12.1 µM	16.6 µM	30.4 µM			2.52	7.22 µM	1.57 µM	3.16	5.12 µM	2.38
Cc1cc(C)c2nc3nc(C)cc(C)c3c(N)c2c1	2.47	13.3	3.34 µM	19.1 µM	11	31.7	5.29 µM	21.4	3.73 µM	14.2 µM	4.1 µM	23.5 µM	4.37	36.2			2.9 µM	16	19.7 µM	3.23
c1ccc(CN2CCCCC(Sc3ccccc3)CC2)cc1 (stereo unspecified)		37.7		> 100 µM				64.3		34.1 µM		> 100 µM		61.8				28.8	78.8 µM	
CCCCCCCCCCCCCCCCCC(=O)OCC(COC1OC(CS(=O)(=O)O)C(O)C(O)C1O)OC(=O)CCCCCCCCCCCCCCCCC (stereo unspecified)		4.42		> 100 µM				> 100		> 100 µM		> 100 µM		> 100		> 100 µM			> 100 µM	
CSc1nc(C)c(Br)c(=O)n1C1OC(COC(C)=O)C(OC(C)=O)C(OC(C)=O)C1OC(C)=O (stereo unspecified)		> 100	43.1 µM and 20.6 µM	> 100 µM and 55.9 µM			> 100 µM and 47 µM	> 100	> 100 µM and 19.2 µM	> 100 µM and 50.7 µM	> 91.7 µM and 42.3 µM	> 100 µM		> 100			> 100 µM and 44.9 µM	> 100	54.8 µM and 58.1 µM	
O=C1NC(c2c(Cl)cccc2Cl)Nc2ccccc21 (stereo unspecified)				> 100 µM		> 100				72.7 µM		> 100 µM		> 100		> 100 µM		> 100	> 100 µM	
